Experimental data published in patent US20140154312A1, “ORAL TARGETTED DRUG DELIVERY SYSTEM” (priority 2010, published 2014).
Entries after “also recorded” stand apart in the source; their conditions may differ.

Columns and labels:
[1] = tested on: colonic micro flora (caecal contents of the rat); experiment: In vitro dissolution (drug release) of natural gum based 5-FU delivery systems in medium containing caecal contents of orally treated rats; format: physicochemical, Wister Albino rats; details: label = treatment given p.o. to the rats whose caecal contents (4% w/v) were used, 5-FU 8 mg/day, probiotics 1 g/day, pH 1.2 for 2 h, pH 6.8 for 3 h, then caecal medium
Protocol: (§1) To answer the questions as above, the inventors adopted an innovative experimental approach using a ‘living biological system’ comprising rats. All the experimental procedures were approved by the Institutional Animal Ethics Committee vide Approval Number 954/ac/06/CPCSEA/09/19. The experimental study was conducted on thirty Wister Albino rats. The animals were divided into 6 groups of five each.
(§2) The dosages were freshly prepared every day by suspending in milk. They were administered by oral gavage needle for first and subsequent exposure for a duration of five days each, at an interval of 20 days.
2 animals from each group were humanely sacrificed for the collection of caecal contents in sterile petri plates, which was immediately utilized for the dissolution studies. For dissolution studies, compression coated tablets of 5-FU with natural gums and microspheres of 5-FU with natural gums were used. The experiments were carried out in 250 ml beaker immersed in water maintained in the jars of dissolution test apparatus. Initial studies were carried out in 150 ml of 0.1N HCl (pH 1.2) for 2 h. After this, NaOH was added to the dissolution media and the pH was adjusted to 6.8. The volume was made up to 200 ml with phosphate buffer of pH 6.8. The study was continued for 3 hours after which, caecal contents (4% w/v) were added. […]

Albino Wister Rats = experiment: Unwanted side-effects on oral administration in rats (hair, body weight, diarrhea, caecal contents, colon histopathology); format: in vivo; details: p.o., 5-FU 8 mg/day for 5 days, probiotics 1 g/day where given
Protocol: as §1, §2
To address whether the unwanted side-effects of colonic drugs e.g. diarrhea, hair loss etc. could also be reduced or eliminated using the ‘innovative approach’ of the present invention, trials were conducted in animals (rats) using 5-FU as a ‘model’.

% drug released in 24 h on exposure to caecal contents of the rat: Compression coated tablets of 5-FU coated with natural gums ([1]; excipient-only control rats: 83): 52% | % drug released in 24 h on exposure to caecal contents of the rat: 5-FU loaded microspheres comprising the drug and natural gums ([1]; excipient-only control rats: 92.20): 41.56%
Compound: O=c1[nH]cc(F)c(=O)[nH]1 [5-FU powder, 5-Fluorouracil]
body weight loss (Albino Wister Rats): loss | diarrhea (Albino Wister Rats): bloody diarrhea | histopathological examination of the colon (Albino Wister Rats): ulceration and loss of epithelial lining; also recorded: diffuse ulceration of the colonic mucosa with loss of lining epithelium | loss of hair (Albino Wister Rats): loss of hair | body weight loss (Albino Wister Rats; listed as 5-FU): loss of weight | loss of hair (Albino Wister Rats; listed as 5-FU): loss of weight and hair
